Assays:
HER14 cells = assay: viability assay with HER14 cells (MTT); type: cell-based; conditions: 0.1 nM dianthin-EGF, 72 h
Procedure: To test the efficacy of the invention, we conducted a viability assay with HER14 cells. These cells are fibroblasts stably transfected with the human epidermal growth factor receptor and therefore target cells for the targeted toxin dianthin-EGF. HER14 cells (2,000 cells/100 μL/well) were seeded into wells of 96-well-cell culture plates and incubated for 24 h in DMEM medium supplemented with 10% fetal calf serum and 1% penicillin/streptomycin at 37° C., 5% CO2 and 98% humidity. The different test substances (see results and FIG. 21) were then added in triplicates in a volume of 25 μL and supplemented with further 25 μL of medium. After an incubation of 72 h, 30 μL 3-(4,5-dimethylthiazol-2-yl)-2,5-diphenyltetrazolium bromide (0.5 mg/mL in water) was added per well and incubated for 2 h. Thereafter, the medium was carefully removed and replaced by an aqueous solution containing 10% (v/v) isopropanol, 5% (w/v) sodium dodecyl sulfate and 400 mM HCl, and incubated for 5 min. Solubilized formazan was photometrically quantitated at […] in a microplate reader (Spectra MAX 340 PC, Molecular Devices, Sunnyvale, Calif., USA). Untreated cells were normalized to 1 and all samples referred to the untreated control. Significance was determined by unpaired two-sample t-tests.

HeLa cells = assay: HeLa cell viability assay (MTS): inhibition of SO1861-mediated endosomal escape by polymeric structures; type: cell-based, human; conditions: […] dianthin-EGF + SO1861 curve, PAMAM 500 nM, chloroquine 500 nM, dendron 667 nM, 72 hr
Procedure: HeLa cells were seeded in DMEM (PAN-Biotech GmbH) supplemented with 10% fetal bovine serum (PAN-Biotech GmbH) and 1% penicillin/streptomycin (PAN-Biotech GmbH), in a 96 well plate at 5,000 c/w in 100 μL/well and incubated overnight at 37° C. and 5% CO2. The next day 20× concentrated stocks of the PAMAM, PAMAM-conjugates, G4-dendron (prepared in Example 3) or chloroquine (Sigma Aldrich) samples were prepared in DMEM. The media was removed from the cell culture plate and replaced by […] culture media, followed by the addition of 10 μL sample/well (from the 20× concentrated stocks) and a 45 min incubation at 37° C. […] Followed by 15 sec sonication and a brief re-heating at 50° C. for 1 min, while shaking at 1,250 rpm. Subsequently a serial dilution of SO1861 was prepared in PBS.
As control for the inhibition of endosomal acidification chloroquine was used.

SMILES: C[C@@H]1O[C@@H](O[C@H]2[C@H](OC(=O)[C@]34CCC(C)(C)C[C@H]3C3=CC[C@@H]5[C@@]6(C)CC[C@H](O[C@H]7O[C@H](C(=O)O)[C@@H](O)[C@H](O[C@@H]8OC[C@@H](O)[C@H](O)[C@H]8O)[C@H]7O[C@@H]7O[C@H](CO)[C@H](O)[C@H](O)[C@H]7O)[C@@](C)(C=O)[C@@H]6CC[C@@]5(C)[C@]3(C)CC4)O[C@H](C)[C@H](O[C@@H]3O[C@H](C)[C@@H](O)[C@H](O)[C@H]3O)[C@@H]2O)[C@H](O)[C@H](O)[C@H]1O[C@@H]1OC[C@@H](O)[C@H](O[C@@H]2OC[C@@H](O)[C@H](O)[C@H]2O)[C@H]1O [SA1641]
- effect on the toxicity of dianthin-EGF (HER14 cells): death of al cells

SMILES: CCN(CC)CCCC(C)Nc1ccnc2cc(Cl)ccc12 (centres unmarked) [chloroquine]
- inhibition of SO1861-mediated endosomal escape of the targeted toxin and subsequent cell killing (HeLa cells): inhibit
